Reference: patent EP4768487A1, “FUSED LACTAM RING COMPOUND AND USE THEREOF” (Chengdu Zenitar Biomedical Technology Co., Ltd., priority 2023, dated 2025)

How the values were obtained:
[1] = system: CD34+ hematopoietic stem and progenitor cells (hmPB34-P-SC); test: Hematological toxicity assay (CellTiter-Glo 2.0); format: cell-based; conditions: 120 h; 5 days of culture
Experimental: The next day, the cells were resuspended and seeded in a 96-well plate at a concentration of 1000 cells/well, and meanwhile, different concentrations of the drug were added for treatment, with 3 replicate wells set for each concentration. After 5 days of culture, the number of viable cells in each well was determined using a CellTiter-Glo 2.0 kit, followed by detection by a microplate reader.

[2] = system: BRCA wild-type DLD-1 cells; test: Anti-proliferative activity against cells (CCK8): DLD-1; format: cell-based; conditions: Homo sapiens, 72 h + 96 h culture
How it was run: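 DLD-1 cells (1000/well) in RPMI-1640 with 10% FBS, treated 24 h after plating with PARPi at 0, 1 or 10 µM final. Cultured 72 h, medium exchanged with re-added PARPi, then a further 96 h; read-out by CCK8.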

[3] = Pharmacokinetic evaluation in Balb/c mice; format: in vivo; conditions: 1mg/kg, PO; for AUC(0-t) / Cmax / half-life: male, mouse, plasma
Experimental: Experimental objective: To understand the pharmacokinetic profiles of the compounds. Experimental basis: Technical guidelines for non-clinical pharmacokinetic studies of chemical drugs, 2014.
Experimental scheme: The pharmacokinetic profiles of the compounds were investigated by intravenous administration (1 mg·kg^-1) and intragastric administration (1 mg·kg^-1) in Balb/c mice.
Sample preparation: About 0.2 mg of the compound was weighed out and dissolved in 10 µL of DMSO, and then a sodium chloride solution for injection was added to prepare a 0.1 mg·mL^-1 compound solution for later administration.
Three of the mice were subjected to intravenous administration (IV) at 1 mg·kg^-1, while the other three were subjected to intragastric administration (PO) at 1 mg·kg^-1. About 0.05 mL of blood was collected at 5 min, 15 min, 30 min, 1 h, 2 h, 4 h, 6 h, 8 h, 10 h, 24 h, and 48 h after administration. The collected blood was centrifuged at 3500 rpm for 15 min. The supernatant plasma was then collected and cryopreserved at -40 °C for later analysis. The plasma concentration was quantitatively analyzed using the LC-MS/MS method, and pharmacokinetic parameters such as […] (Cmax), area under plasma concentration-time curve (AUC(0-t)), half-life (T1/2), clearance rate (CL), tissue distribution (Vdss), and bioavailability (F) were calculated. Table 18. Results of pharmacokinetic test of compounds in Balb/c mice

[4] = target: T1, hERG potassium ion channel (Homo sapiens, UniProt Q12809); test: Inhibition of hERG potassium ion channel (Qpatch, CHO cells stably expressing hERG); format: cell-based; conditions: for inhibitory effects on the hERG potassium ion channel (in words): conclusion of Table 17; for inhibition at 2.5 min, 20 µM: human, CHO cells stably expressing hERG, read-out: Inhibition rate at 20 µM
T1 construct: expressed in transfected cells; host or cells: CHO cells
T1 sequence (Q12809 whole entry): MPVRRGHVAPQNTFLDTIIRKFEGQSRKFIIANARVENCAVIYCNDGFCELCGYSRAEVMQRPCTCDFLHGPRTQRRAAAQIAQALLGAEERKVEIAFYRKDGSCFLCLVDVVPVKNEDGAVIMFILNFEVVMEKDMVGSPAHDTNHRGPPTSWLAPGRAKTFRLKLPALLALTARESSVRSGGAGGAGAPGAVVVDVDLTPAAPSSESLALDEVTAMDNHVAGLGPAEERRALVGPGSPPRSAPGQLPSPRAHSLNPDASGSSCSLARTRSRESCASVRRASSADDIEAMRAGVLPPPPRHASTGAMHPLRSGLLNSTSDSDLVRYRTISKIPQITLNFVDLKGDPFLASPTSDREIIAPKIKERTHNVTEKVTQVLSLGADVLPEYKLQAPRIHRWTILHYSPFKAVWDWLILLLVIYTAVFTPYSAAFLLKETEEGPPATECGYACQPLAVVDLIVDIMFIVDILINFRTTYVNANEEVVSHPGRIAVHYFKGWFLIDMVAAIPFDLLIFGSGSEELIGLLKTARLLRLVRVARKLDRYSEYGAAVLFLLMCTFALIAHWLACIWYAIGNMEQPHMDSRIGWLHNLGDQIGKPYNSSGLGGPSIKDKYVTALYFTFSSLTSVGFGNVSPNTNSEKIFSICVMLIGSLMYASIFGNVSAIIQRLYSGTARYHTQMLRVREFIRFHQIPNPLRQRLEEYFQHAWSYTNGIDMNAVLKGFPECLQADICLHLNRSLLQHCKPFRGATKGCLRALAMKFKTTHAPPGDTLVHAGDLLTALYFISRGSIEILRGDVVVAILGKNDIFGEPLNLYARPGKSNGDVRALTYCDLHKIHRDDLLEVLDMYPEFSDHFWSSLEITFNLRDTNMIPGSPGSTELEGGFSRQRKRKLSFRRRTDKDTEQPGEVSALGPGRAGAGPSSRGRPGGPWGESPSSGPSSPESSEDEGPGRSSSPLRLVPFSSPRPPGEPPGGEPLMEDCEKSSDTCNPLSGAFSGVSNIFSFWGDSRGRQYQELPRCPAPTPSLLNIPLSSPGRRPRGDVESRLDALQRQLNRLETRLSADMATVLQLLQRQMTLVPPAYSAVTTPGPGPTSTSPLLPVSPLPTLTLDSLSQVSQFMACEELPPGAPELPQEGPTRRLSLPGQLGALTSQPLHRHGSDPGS
Experimental: Cell culture and treatment: CHO cells stably expressing hERG were cultured in a cell culture flask and incubated in an incubator with 5% CO2 at 37 °C. When the cell density reached 60%-80%, the cell culture medium was removed by pipetting. The cells were washed once with PBS, and then Detachin was added for detachment. After complete detachment, a culture medium was added for neutralization. The cells were then centrifuged, and the supernatant was removed by pipetting. A culture medium was further added for resuspension, and the cell density was adjusted to (2-5) × 10^6 cells/mL for later use.
Compound preparation: The compound stock solution was diluted with 100% DMSO. Specifically, 10 µL of the compound stock solution was added to 20 µL of DMSO, followed by a 3-fold serial dilution to obtain 6 concentrations. 4 µL of each of the 6 compound solutions at different concentrations was taken and added to 396 µL of an extracellular fluid, resulting in a 100-fold dilution to obtain 6 intermediate concentrations. Then, 80 µL of each of the 6 intermediate-concentration compound solutions was taken and added to 320 µL of an extracellular fluid, resulting in a 5-fold dilution to achieve the final test concentrations. The highest test concentration was 40 µM. […] DMSO at this concentration has no effect on the hERG potassium channel. During the compound preparation, the entire dilution process was completed by a Bravo instrument.
Electrophysiological recording process: The single-cell high-impedance sealing and whole-cell mode formation processes were all completed automatically by a Qpatch instrument. After achieving the whole-cell recording mode, the cells were clamped at -80 mV. Before a 5-second +40 mV depolarizing stimulus was applied, a 50-millisecond -50 mV prepulse voltage was first applied. The potential was then repolarized to -50 mV and held for 5 s, and finally returned to -80 mV. This voltage stimulation was applied every 15 s. After 2 min of recording, the extracellular fluid was administered, followed by recording for 5 min. Then, the compound administration process began, starting from the lowest test compound concentration. Each test concentration was applied for 2.5 min. After all the concentrations were applied consecutively, the positive control compound, 3 µM Cisapride, was administered. At least 3 cells (n ≥ 3) were tested for each concentration.
Data processing: Data analysis and processing were performed using GraphPad Prism 5.0 and Excel software. The IC50 of the compound was calculated using GraphPad Prism 5 software by equation fitting as follows: Y = Bottom + (Top−Bottom)/(1+10^(∧)((LogIC50−X)*HillSLope)) [formula] where X is the Log value of the test concentration of the test sample, Y is the inhibition percentage at the corresponding concentration, and Bottom and Top are the minimum and maximum inhibition percentages, respectively. Table 17. Results of inhibition of hERG potassium ion channel by compounds

IC50 [2] [nM] | Vdss [3] [L/kg] | AUC(0-t) [3] [ng·h/mL] | Cmax [3] [ng/mL] | half-life [3] [h] | Compound | IC50 [1] [nM] | CL [3] [mL/min/kg] | inhibitory effects on the hERG potassium ion channel (in words) [4] | inhibition at 2.5 min, 20 µM [4] [%]
> 1000 | 0.38 | 5400 | 2350 | 1.36 | CCc1cc2c([nH]c1=O)CC(CN1CCN(c3ccc(C(=O)NC)nc3F)CC1)OC2 (centres unmarked) [Compound 2, 5-(4-((3-Ethyl-2-oxo-1,5,7,8-tetrahydro-2H-pyrano[4,3-b]pyridin-7-yl)methyl)piperazin-1-yl)-6-fluoro-N-methyl picolinamide] | 738 | 3.17 | Conclusion: Compounds 2, 6, 45, 62, 67, 74, 83, 87, etc., of the present disclosure exhibited relatively weak inhibitory effects on the hERG potassium ion channel. | 6.7
> 1000 | 1.06 | 17100 | 2350 | 2.52 | CNC(=O)c1ccc(N2CCN(CC3Cc4[nH]c(=O)c(C)cc4CO3)CC2)c(Cl)n1 (centres unmarked) [Example 74, 6-Chloro-N-methyl-5-(4-((3-methyl-2-oxo-1,5,7,8-tetrahydro-2H-pyrano[4,3-b]pyridin-7-yl)methyl)piperazin-1-yl)picolinamide] | > 1000 |  | Conclusion: Compounds 2, 6, 45, 62, 67, 74, 83, 87, etc., of the present disclosure exhibited relatively weak inhibitory effects on the hERG potassium ion channel. | 17.7

Compound | IC50 [2] [nM] | Vdss [3] [L/kg] | AUC(0-t) [3] [ng·h/mL] | Cmax [3] [ng/mL] | half-life [3] [h] | IC50 [1] [nM] | CL [3] [mL/min/kg] | inhibitory effects on the hERG potassium ion channel (in words) [4] | inhibition at 2.5 min, 20 µM [4] [%]
CNC(=O)c1ccc(N2CCN(C[C@H]3CCc4nc(C)c(=O)[nH]c4C3)CC2)c(F)n1 [Example 45, (S)-6-Fluoro-N-methyl-5-(4-((2-methyl-3-oxo-3,4,5,6,7,8-hexahydroquinoxaline-6-yl)methyl)piperazin-1-yl)picolinamide] | > 1000 | 6.85 | 1540 | 359 | 7.98 | 331 | 9.83 | Conclusion: Compounds 2, 6, 45, 62, 67, 74, 83, 87, etc., of the present disclosure exhibited relatively weak inhibitory effects on the hERG potassium ion channel. | 13
